The values that follow come from patent US8969565B2, “Imidazo[1,2-b]pyridazine-based compounds, compositions comprising them, and methods of their use” (Lexicon Pharmaceuticals, Inc., priority 2012, dated 2015).

Each structure is given as a SMILES string. Bounds are passed on as bounds.

For this assay, the target named is T1, AAK1 (Homo sapiens, UniProt Q2M2I8).
T1 construct: HA; expressed in transfected cells; host or cells: HEK293F
The experiment in a line: HEK281 cell-based assay (phospho-mu2 Western blot in transfected HEK293F cells). The note with it: 3 hours incubation, read-out: CBA IC50. In a few lines:
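HEK293F cells co-transfected with full-length human AAK1/HA and Flag/AP2M1 were treated next day with 5 compound concentrations (3-fold dilutions) in DMEM+0.5% FBS for 3 hours at 37° C. Lysates were Western blotted for phospho-mu2, with total mu2 detected by anti-Flag.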
(In western blotting, separated proteins are transferred to a membrane and probed.)

T1 sequence (Q2M2I8 1-863 isoform Q2M2I8-2): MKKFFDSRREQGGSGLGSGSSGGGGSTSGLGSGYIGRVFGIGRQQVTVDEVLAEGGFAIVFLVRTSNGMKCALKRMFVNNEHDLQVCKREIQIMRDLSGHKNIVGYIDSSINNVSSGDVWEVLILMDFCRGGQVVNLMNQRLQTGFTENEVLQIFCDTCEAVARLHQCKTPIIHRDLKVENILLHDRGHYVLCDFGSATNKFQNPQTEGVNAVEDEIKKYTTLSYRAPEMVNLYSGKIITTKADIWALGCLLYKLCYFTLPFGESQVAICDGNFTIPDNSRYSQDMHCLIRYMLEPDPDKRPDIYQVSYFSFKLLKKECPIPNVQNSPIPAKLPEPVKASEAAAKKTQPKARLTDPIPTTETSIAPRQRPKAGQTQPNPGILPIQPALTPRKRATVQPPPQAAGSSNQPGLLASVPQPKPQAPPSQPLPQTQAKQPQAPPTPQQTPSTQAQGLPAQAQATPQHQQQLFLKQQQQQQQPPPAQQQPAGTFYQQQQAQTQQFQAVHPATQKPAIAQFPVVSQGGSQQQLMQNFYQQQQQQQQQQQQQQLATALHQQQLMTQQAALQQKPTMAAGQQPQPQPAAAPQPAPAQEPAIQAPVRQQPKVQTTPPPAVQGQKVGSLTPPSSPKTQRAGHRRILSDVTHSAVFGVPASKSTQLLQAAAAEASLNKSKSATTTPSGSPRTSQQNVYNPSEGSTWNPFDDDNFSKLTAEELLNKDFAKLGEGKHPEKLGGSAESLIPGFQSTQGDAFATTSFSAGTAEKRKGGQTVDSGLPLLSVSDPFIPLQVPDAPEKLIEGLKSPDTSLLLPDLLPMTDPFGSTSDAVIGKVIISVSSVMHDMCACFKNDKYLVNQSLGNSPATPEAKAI

Usually IC50 stands for the concentration needed to halve the response being measured. For `CCOC(=O)N1CCC[C@H]1CNc1ccc2ncc(-c3ccncc3OC)n2n1` [(S)-ethyl 2-(((3-(3-methoxypyridin-4-yl)imidazo[1,2-b]pyridazin-6-yl)amino)methyl)pyrrolidine-1-carboxylate], the IC50 is no more than 100 nM. The figure for `CCOC(=O)N1CCC[C@H]1CNc1ccc2ncc(-c3ccc(CN)cc3)n2n1` [(S)-ethyl 2-(((3-(4-(aminomethyl)phenyl)imidazo[1,2-b]pyridazin-6-yl)amino)methyl)pyrrolidine-1-carboxylate] is no more than 10 nM; for `CCOC(=O)N1CCC[C@H]1CNc1ccc2ncc(-c3ccncc3)n2n1` [(S)-ethyl 2-(((3-(pyridin-4-yl)imidazo[1,2-b]pyridazin-6-yl)amino)methyl)pyrrolidine-1-carboxylate] it is no more than 100 nM; for `CCOC(=O)N1CCC[C@H]1CNc1ccc2ncc(Br)n2n1` [(S)-ethyl 2-(((3-bromoimidazo[1,2-b]pyridazin-6-yl)amino)methyl)pyrrolidine-1-carboxylate] it is no more than 100 nM. The figure for `CCOC(=O)N(C)[C@H]1CCN(c2ccc3ncc(-c4ccc(C)nc4OC)n3n2)C1` [(S)-ethyl (1-(3-(2-methoxy-6-methylpyridin-3-yl)imidazo[1,2-b]pyridazin-6-yl)pyrrolidin-3-yl)(methyl)carbamate] is no more than 100 nM. The figure for `COc1ccccc1-c1cnc2ccc(NC[C@@H]3CCCN3C(=O)OC(C)C)nn12` [(S)-isopropyl 2-(((3-(2-methoxyphenyl)imidazo[1,2-b]pyridazin-6-yl)amino)methyl)pyrrolidine-1-carboxylate] is no more than 10 nM. As to `COc1cnccc1-c1cnc2ccc(NC[C@@H]3CCCN3C(=O)OC(C)C)nn12` [(S)-isopropyl 2-(((3-(3-methoxypyridin-4-yl)imidazo[1,2-b]pyridazin-6-yl)amino)methyl)pyrrolidine-1-carboxylate], the IC50 was no more than 10 nM.

Consider `CC(C)OC(=O)N1CCC[C@H]1CNc1ccc2ncc(-c3ccc(CN)cc3)n2n1` [(S)-isopropyl 2-(((3-(4-(aminomethyl)phenyl)imidazo[1,2-b]pyridazin-6-yl)amino)methyl)pyrrolidine-1-carboxylate], for which the IC50 was no more than 10 nM.

On to `C=C(C)c1cnc2ccc(NC[C@@H]3CCCN3C(=O)OC(C)C)nn12` [(S)-isopropyl 2-(((3-(prop-1-en-2-yl)imidazo[1,2-b]pyridazin-6-yl)amino)methyl)pyrrolidine-1-carboxylate], for which the 50% inhibitory concentration (IC50) was no more than 100 nM. The figure for `CC(C)OC(=O)N1CCC[C@H]1CNc1ccc2ncc(Br)n2n1` [(S)-isopropyl 2-(((3-bromoimidazo[1,2-b]pyridazin-6-yl)amino)methyl)pyrrolidine-1-carboxylate] is no more than 1000 nM. Regarding `CC(C)OC(=O)N1CCC[C@H]1CNc1ccc2ncc(C3CC3)n2n1` [(S)-isopropyl 2-(((3-cyclopropylimidazo[1,2-b]pyridazin-6-yl)amino)methyl)pyrrolidine-1-carboxylate], the IC50 was no more than 1000 nM. The figure for `C=Cc1cnc2ccc(NC[C@@H]3CCCN3C(=O)OC(C)C)nn12` [(S)-isopropyl 2-(((3-vinylimidazo[1,2-b]pyridazin-6-yl)amino)methyl)pyrrolidine-1-carboxylate] is no more than 10 nM; for `CC(C)OC(=O)N(C)CCNc1ccc2ncc(-c3ccc([C@@H]4CCCN4)cc3)n2n1` [(S)-isopropyl methyl(2-((3-(4-(pyrrolidin-2-yl)phenyl)imidazo[1,2-b]pyridazin-6-yl)amino)ethyl)carbamate] it is no more than 100 nM; for `COC(=O)N1CCC[C@H]1CNc1ccc2ncc(-c3ccccc3OC)n2n1` [(S)-methyl 2-(((3-(2-methoxyphenyl)imidazo[1,2-b]pyridazin-6-yl)amino)methyl)pyrrolidine-1-carboxylate] it is no more than 100 nM. With `COC(=O)N1CCC[C@H]1CNc1ccc2ncc(-c3ccncc3OC)n2n1` [(S)-methyl 2-(((3-(3-methoxypyridin-4-yl)imidazo[1,2-b]pyridazin-6-yl)amino)methyl)pyrrolidine-1-carboxylate], the IC50 is no more than 100 nM.
